Columns and labels:
ecFolD G8S = target: T1, ecFolD G8S (Escherichia coli, UniProt P24186, G8S); experiment: ecFolD G8S mutant dehydrogenase (DH) enzyme assay; type: biochemical, E. coli
T1 construct: His-tag (TEV-cleavable, vector pHis-TEV); made in house; host or cells: E. coli BL21 (DE3)
Method: (6R,S)-5,10-Methylene-5,6,7,8-tetrahydrofolic acid ((6R,S)-5,10-CH2-THF) calcium salt and (6R,S)-5,10-Methenyl-5,6,7,8-tetrahydrofolic acid ((6R,S)-5,10-CH=THF) chloride were purchased from Schircks Laboratories (Bauma, Switzerland) and used as substrates for FolD dehydrogenase and cyclohydrolase enzyme assays, respectively. Only the R-isomer, which accounts for 50% of (6R,S)-5,10-CH2-THF and (6R,S)-5,10-CH=THF, respectively, is used by the enzyme. (6R,S)-5,10-CH2-THF was dissolved in N2-spargeled basic buffer (50 mM Tris-HCl (pH 8.0), 100 mM β-mercaptoethanol) as described by Varshney et al.[25]. (6R,S)-5,10-CH=THF was dissolved in DMSO as a 100 mM stock solution.
Because FolD is a bifunctional enzyme, dehydrogenase and cyclohydrolase activities were determined for FolD enzyme kinetics, respectively. The dehydrogenase activity of FolD was assayed for its substrate 5,10-CH2-THF and cofactor NADP^+ (in the case of MTHFD2, NAD^+ was used as the cofactor) based on monitoring the formation of 5,10-CH=THF, while the cyclohydrolase activity of FolD was determined for its substrate 5,10-CH=THF by monitoring the hydrolysis of […]. The enzyme kinetics for the dehydrogenase activity of all FolDs except hsMTHFD1_DC were determined at 30 °C in 50 mM Tris-HCl (pH 7.5), 30 mM β-mercaptoethanol. […]

HCT-116 = experiment: Cytotoxicity screening, HCT-116 (MTT); type: cell-based, human; conditions: for EC50: 5 d treatment, MTT
Method: (§1) Half maximal effective concentrations (EC50) on human cancer cell lines were determined as described elsewhere. Human cancer cell lines were maintained as recommended by the depositor (German Collection of Microorganisms and Cell Cultures, DSMZ) and were treated for 5 d with carolacton in serial dilution. The viability of adherent cell types, HCT-116 (ACC 581), KB-3.1 (ACC-158) and KB-V.1 (ACC-149) was assessed by the addition of MTT tetrazolium salt and absorbance measurement at 570 nm. Histiocytic lymphoma U-937 cells (ACC-5) were maintained in RPMI 1640 medium and transferred into folate-free medium prior to the assay. Cell viability was determined by measuring alamar blue fluorescence emission at 590 nm. The values were referenced and EC50 values were determined by sigmoidal curve fitting. The cell lines KB-3.1 and KB-V.1 are originally derived from HeLa, whereas the latter is an MDR subclone of KB-3.1. They were used to directly compare the activity of carolacton on an mdr1 overexpressing and a sensitive cell line.

KB-3.1 = experiment: Cytotoxicity screening, KB-3.1 (MTT); type: cell-based, human; conditions: for EC50: 5 d treatment, MTT
Method: as §1

Compound `CO[C@H](CC(=O)O)[C@@H](C)C(=O)[C@H](C)/C=C(\C)[C@H]1OC(=O)[C@H](O)[C@H](O)/C=C/[C@H](C)CCC[C@@H]1C` [carolacton] has an IC50 (ecFolD G8S) of 0.0865 µM, an IC80 (ecFolD G8S; read-out: IC80, carolacton inhibition on DH activity) of 0.737 µM and an EC50 (HCT-116) of 24.6 ± 0.8 µM. For the same compound, the EC50 (HCT-116; Homo sapiens, HCT-116, 120 h) was 25 µM, the Maximum inhibition (HCT-116; inhibition of cell growth, 5 d) was greater than 80% and the EC50 (KB-3.1) was 11.3 ± 3.6 µM. For the same compound, the EC50 (KB-3.1; Homo sapiens, KB 3-1, 120 h) was 11 µM and the Maximum inhibition (KB-3.1; inhibition of cell growth, 5 d) was greater than 80%.
